These are literature values, as cited in US8492370B2, “Compounds and methods for their production” (Bristol-Myers Squibb Company, priority 2006, dated 2013).

The target of one series is Hsp90 (Homo sapiens, UniProt P07900).
In the next series the test system is SKBr3. The note with it: compared with geldanamycin and 17-AAG.
For series [1], the target named is terminal deoxynucleotidyl transferase (Homo sapiens, UniProt P04053).
terminal deoxynucleotidyl transferase, sequence (P04053 whole entry, species assumed): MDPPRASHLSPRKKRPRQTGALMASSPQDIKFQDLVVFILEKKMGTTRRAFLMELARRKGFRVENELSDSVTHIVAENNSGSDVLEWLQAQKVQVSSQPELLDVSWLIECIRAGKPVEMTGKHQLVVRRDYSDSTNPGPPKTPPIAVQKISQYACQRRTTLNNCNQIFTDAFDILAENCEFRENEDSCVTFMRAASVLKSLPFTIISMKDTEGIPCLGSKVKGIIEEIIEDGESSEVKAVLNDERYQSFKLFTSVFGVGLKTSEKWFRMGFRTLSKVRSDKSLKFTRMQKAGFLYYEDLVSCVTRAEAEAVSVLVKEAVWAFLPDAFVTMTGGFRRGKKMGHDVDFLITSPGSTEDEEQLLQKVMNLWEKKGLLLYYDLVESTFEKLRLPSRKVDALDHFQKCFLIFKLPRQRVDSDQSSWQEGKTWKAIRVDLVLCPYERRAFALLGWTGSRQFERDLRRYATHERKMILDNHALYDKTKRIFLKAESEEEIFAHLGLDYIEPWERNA

As for `CO[C@H]1C[C@H](C)Cc2cc(O)cc(c2)NC(=O)/C=C/CC[C@H](OC)[C@@H](OC(N)=O)/C(C)=C/[C@H](C)[C@H]1O` [KOSN1559], the “binding affinity to Hsp90, fold greater than 17-AAG” value at Hsp90 (relative to 17-AAG) is listed as 8 fold. The “binding affinity to Hsp90, fold greater than geldanamycin” value on Hsp90 (relative to geldanamycin) is listed as 4 fold. Moreover, the “IC50 measurement using SKBr3” value in the series with SKBr3 is recorded as “not reflected in an improvement”.
Take `CO[C@H]1[C@@H](OC)C[C@H](C)[C@@H](OC)C2=CC(=O)C=C(NC(=O)/C(C)=C/C=C\[C@H](C)[C@@H](OC(N)=O)/C(C)=C/[C@@H]1C)C2=O` [macbecin]: the “Reverse transcriptase activity inhibition” value in the series with Reverse transcriptase is “not inhibited”. Further, the “terminal deoxynucleotidyl transferase activity inhibition” value in series [1] is reported as “not inhibited”.
